In article PMC6312236, “Functional characterization reveals that zebrafish CFTR prefers to occupy closed channel conformations” (PLoS ONE, 2018):

Assays:
Test in all cases: inside-out patch clamp, macroscopic current
Assay type in all cases: biochemical
[1] = target: T1, WT-nzCFTR (native form of zebrafish CFTR) (Danio rerio, UniProt Q1LX78); conditions: 10 μM inhibitor, PKA-phosphorylated channel, pH 7.4, 22-24 °C
T1 construct: full-length wild type, native (not codon-optimized) cDNA from M. Bagnat lab, co-transfected with peGFP-C3 in CHO cells; PKA-phosphorylated in patches
T1 sequence (Q1LX78 1-1485): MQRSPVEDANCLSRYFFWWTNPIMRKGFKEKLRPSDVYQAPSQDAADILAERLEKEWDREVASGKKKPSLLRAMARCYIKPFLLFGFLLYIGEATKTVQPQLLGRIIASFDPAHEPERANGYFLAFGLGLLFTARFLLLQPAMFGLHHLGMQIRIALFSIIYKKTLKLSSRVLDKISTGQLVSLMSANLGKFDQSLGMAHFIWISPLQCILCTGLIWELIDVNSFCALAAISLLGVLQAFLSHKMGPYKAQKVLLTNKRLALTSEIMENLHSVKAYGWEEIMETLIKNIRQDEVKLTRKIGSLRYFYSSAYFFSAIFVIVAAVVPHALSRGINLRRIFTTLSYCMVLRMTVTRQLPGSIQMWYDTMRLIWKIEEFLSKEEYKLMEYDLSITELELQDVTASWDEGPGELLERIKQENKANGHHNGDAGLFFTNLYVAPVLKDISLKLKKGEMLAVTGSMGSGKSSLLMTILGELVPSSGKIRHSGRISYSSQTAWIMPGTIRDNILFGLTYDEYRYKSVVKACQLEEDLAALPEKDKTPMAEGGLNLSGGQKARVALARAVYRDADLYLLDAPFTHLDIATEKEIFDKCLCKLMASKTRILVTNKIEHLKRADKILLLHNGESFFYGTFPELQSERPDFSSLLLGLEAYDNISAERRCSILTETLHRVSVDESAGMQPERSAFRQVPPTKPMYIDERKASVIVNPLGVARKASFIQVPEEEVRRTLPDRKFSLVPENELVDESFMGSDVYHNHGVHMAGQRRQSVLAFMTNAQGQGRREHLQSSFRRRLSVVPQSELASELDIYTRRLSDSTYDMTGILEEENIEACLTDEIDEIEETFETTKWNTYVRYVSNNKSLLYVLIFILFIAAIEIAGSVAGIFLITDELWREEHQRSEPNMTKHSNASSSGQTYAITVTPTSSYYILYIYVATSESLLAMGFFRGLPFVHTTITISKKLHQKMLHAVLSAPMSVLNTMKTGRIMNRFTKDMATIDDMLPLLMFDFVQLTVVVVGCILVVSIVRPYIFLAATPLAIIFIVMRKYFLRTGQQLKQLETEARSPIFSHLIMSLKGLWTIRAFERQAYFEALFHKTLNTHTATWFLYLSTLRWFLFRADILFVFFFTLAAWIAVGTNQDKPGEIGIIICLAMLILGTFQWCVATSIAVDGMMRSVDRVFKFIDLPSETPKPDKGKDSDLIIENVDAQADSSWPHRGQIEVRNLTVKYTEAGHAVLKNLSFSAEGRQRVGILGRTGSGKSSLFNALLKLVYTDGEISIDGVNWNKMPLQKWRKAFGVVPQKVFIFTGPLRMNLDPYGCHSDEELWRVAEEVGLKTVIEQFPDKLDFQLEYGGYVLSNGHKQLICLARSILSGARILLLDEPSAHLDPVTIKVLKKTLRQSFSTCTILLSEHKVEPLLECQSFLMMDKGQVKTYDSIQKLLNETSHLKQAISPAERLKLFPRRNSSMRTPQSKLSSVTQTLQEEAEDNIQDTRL

[2] = target: T2, WT-zCFTR (codon optimized zebrafish CFTR) (Danio rerio, UniProt Q1LX78); conditions: 10 μM inhibitor, PKA-phosphorylated channel, pH 7.4, 22-24 °C
T2 construct: full-length wild type, codon-optimized cDNA (from J. Chen), co-transfected with peGFP-C3 in CHO cells; PKA-phosphorylated in patches
T2 sequence (Q1LX78 1-1485): T1 sequence (Q1LX78 1-1485)

[3] = target: T2, WT-zCFTR (codon optimized zebrafish CFTR); conditions: 50 μM P-ATP relative to 2 mM ATP, PKA-phosphorylated channel, pH 7.4

inhibition ratio at 10 μM [1]	inhibition ratio at 10 μM [2]	IP-ATP/IATP [3]	Compound
0.30 ± 0.04	0.27 ± 0.03		O=C(O)c1ccc(/C=C2\SC(=S)N(c3cccc(C(F)(F)F)c3)C2=O)cc1 [CFTRinh-172]
		0.88 ± 0.04	O=P(O)(O)OP(=O)(O)OP(=O)(O)OC[C@H]1O[C@@H](n2cnc3c(NCCc4ccccc4)ncnc32)[C@H](O)[C@@H]1O [N6‐Phenylethyl‐ATP]
